The target of one data set is T1, human 12R-LOX enzyme (Homo sapiens, UniProt O75342).
T1 construct: Coding region of the cDNA was amplified from the basic vector pCMV6Neo-12R-LOX (OriGene, USA) and was ligated into pET28(b); His-tag (N); made in house; host or cells: E. coli BL21 Rossetta DE3
T1 sequence (O75342 1-701): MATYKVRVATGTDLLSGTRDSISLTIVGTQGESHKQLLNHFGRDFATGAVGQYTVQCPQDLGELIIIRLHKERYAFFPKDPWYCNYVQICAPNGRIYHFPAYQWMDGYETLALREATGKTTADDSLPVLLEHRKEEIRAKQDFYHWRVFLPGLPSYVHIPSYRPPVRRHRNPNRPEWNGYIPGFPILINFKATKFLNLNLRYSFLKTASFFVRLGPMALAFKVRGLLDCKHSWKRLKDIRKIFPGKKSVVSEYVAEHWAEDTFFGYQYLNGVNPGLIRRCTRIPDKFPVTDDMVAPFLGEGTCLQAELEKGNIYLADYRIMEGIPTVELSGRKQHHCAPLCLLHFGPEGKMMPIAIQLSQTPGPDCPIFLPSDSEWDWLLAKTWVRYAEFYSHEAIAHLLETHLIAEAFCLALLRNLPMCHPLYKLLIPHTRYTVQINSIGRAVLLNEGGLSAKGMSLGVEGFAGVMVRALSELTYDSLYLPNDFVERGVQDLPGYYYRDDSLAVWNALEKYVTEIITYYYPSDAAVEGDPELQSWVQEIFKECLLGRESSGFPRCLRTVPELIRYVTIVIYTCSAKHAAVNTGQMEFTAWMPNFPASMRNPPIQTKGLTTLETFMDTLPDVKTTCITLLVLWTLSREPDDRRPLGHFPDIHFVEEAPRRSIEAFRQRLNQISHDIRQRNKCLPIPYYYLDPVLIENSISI
The experiment in a line: Screening of compounds against 12R-LOX in isolated enzyme systems. Type of data set: biochemical. To be noted: for inhibition at 100 µM: read-out: % Inhibition (at 100 μM). From the text: Human 12R-LOX gene was cloned and expressed as an N-terminally His-tagged fusion protein. Coding region of the cDNA was amplified from the basic vector pCMV6Neo-12R-LOX (OriGene, USA) and was ligated into pET28(b), a prokaryotic protein expression vector. E. coli BL21 Rossetta DE3 (an engineered strain of BL21) was transformed with the pET28(b) recombinant vector containing Kanamycin and chloramphenicol resistance gene as the selection markers. Single colony selected on kanamycin and chloramphenicol was checked for the expression of the protein. For this single colony was cultured at 37° C. in LB medium containing […] kanamycin and […] chloramphenicol to reach an absorbance of 0.6 at 600 nm. The cultured bacteria were then induced to express recombinant protein by using isopropyl β-D-thiogalactopyranoside (IPTG) (1 mM final concentration) at 18° C. The culture was incubated for 8-12 h and then the culture was spun down to collect the bacterial cells. The cells were re-suspended in the required amount of phosphate buffer saline (PBS) containing protease inhibitor. The cells were then lysed by sonication to extract the protein. The cells were sonicated for 5 min. and then debris was removed by centrifugation at 13000 rpm for 30 min at 4° C. The clear supernatant was collected and was used as the source of enzyme.
Purification of the recombinant 12R-LOX protein was performed using nickel-nitrilotriacetic acid (Ni-NTA) metal-affinity chromatography as per manufacturer's protocol. Briefly, Ni-NTA slurry (500 microliters for 150 mL of culture) was added to the cleared bacterial lysate and mixed gently by shaking at 4° C. for 60 min. Then the lysate—Ni-NTA slurry was loaded into a column. The column was then washed with 10 mL of washing buffer (50 mM phosphate buffer with 300 mM sodium chloride) containing 20 mM imidazole to remove loosely bound proteins. Then tightly bound proteins were eluted from the column with elution buffer (50 mM phosphate buffer with 300 mM sodium chloride) containing 300 mM imidazole. The purified protein fractions were then analyzed further by SDS-PAGE and western blotting to confirm the presence of 12R-LOX (FIGS. 1a and 1b).
Fractions with human 12R-LOX protein were added to a total volume of 0.3 mL of phosphate buffered saline (pH 7.4) and incubated with substrate, arachidonic acid methyl ester. The mixture was vortexed and incubated for 15 min at 37° C. […] After 5 min the reaction was acidified to pH 3 with 50 μL of acetic acid and then the proteins were precipitated with the addition of 0.3 mL of ice-cold methanol. The total mixture was centrifuged (14000 rpm for 15 min) to remove the proteins and the clear supernatant was analysed on reverse phase HPLC (RP-HPLC). The solvent system used was methanol:water:acetic acid in the ratio of 85:15:0.1 with a flow rate of 1 mL/min on a C18 column. The chromatograms were followed by monitoring the absorbance for HETE products at 235 nm. Individual peak areas in each chromatogram were taken for further comparison analysis.
Baicalein, the standard 12R-LOX inhibitor, was used as a positive control for all inhibition assays performed. The compounds were evaluated for their inhibitory action against human 12R-LOX enzyme at 100 μM concentration in vitro. Further, IC50 of the compounds of the present invention were determined.

The mark [1] stands for this setting: 12R-LOX inhibitory activities in vitro, 100 μM concentration.
Where [2] appears, read: 12R-LOX inhibitory activities in vitro.

The source of these data is patent US20220356162A1, “Heterocyclic Compounds as Lipoxygenase Inhibitors” (Dr. Reddy's Institute of Life Sciences, priority 2019, published 2022).

Like-named read-outs stand apart in the source and are kept apart here.

Usually melting point stands for the temperature of the solid-liquid transition. What is called inhibition is how much of the control response was suppressed. In turn, `Nc1ccc(O)cc1-c1cc(=O)c2cc(O)ccc2o1` [Compound 16, 2-(2-Amino-5-hydroxyphenyl)-6-hydroxy-4H-chromen-4-one] registered a melting point of 130 to 132 °C. For the same compound, the inhibition at 100 µM at human 12R-LOX enzyme (setting [1]) came out at 38.3 ± 3.8%. As for `CCOc1ccc(N)c(-c2cc(=O)c3ccccc3o2)c1` [Compound 5, 2-(2-Amino-5-ethoxyphenyl)-4H-chromen-4-one], the melting point lay within 88 to 90 °C. Consider `C#CCOc1ccc(NC(=O)c2ccccc2)c(-c2cc(=O)c3ccccc3o2)c1` [Compound 11, N-(2-(4-Oxo-4H-chromen-2-yl)-4-(prop-2-ynyloxy)phenyl) benzamide], for which the melting point was in the range of 154 to 156 °C. Take `O=C(Nc1ccc(O)cc1-c1cc(=O)c2ccccc2o1)c1ccccc1` [Compound 12, N-(4-Hydroxy-2-(4-oxo-4H-chromen-2-yl)phenyl)benzamide]: the melting point is greater than 200 °C.

`O=c1cc(-c2cc(O)ccc2NS(=O)(=O)c2ccccc2)oc2ccccc12` [Compound 8, N-(4-Hydroxy-2-(4-oxo-4H-chromen-2-yl)phenyl)benzene Sulfonamide] had a melting point greater than 200 °C. `C#CCOc1ccc(NS(=O)(=O)c2ccccc2)c(-c2cc(=O)c3ccccc3o2)c1` [Compound 7, N-(2-(4-Oxo-4H-chromen-2-yl)-4-(prop-2-ynyloxy)phenyl)benzene sulfonamide] showed a melting point of 152 to 154 °C. In addition, at human 12R-LOX enzyme, the inhibition at 100 µM is 21 ± 7%.

One may read the IC50 as the concentration needed to halve the response being measured. Low values mean higher potency, high ones lower potency. `Nc1ccc(O)cc1-c1cc(=O)c2ccccc2o1` [Compound 1, 2-(2-Amino-5-hydroxyphenyl)-4H-chromen-4-one] gave a melting point of 202 to 204 °C. This compound came in with an IC50 at human 12R-LOX enzyme (setting [2]) of 188 µM. Moreover, the inhibition at 100 µM on human 12R-LOX enzyme (setting [1]) is 40%. Regarding `CS(=O)(=O)Nc1ccc(OS(C)(=O)=O)cc1-c1cc(=O)c2ccccc2o1` [Compound 2, 4-(Methylsulfonamido)-3-(4-oxo-4H-chromen-2-yl)phenylmethane Sulfonate], the inhibition at 100 µM on human 12R-LOX enzyme (setting [1]) was 56%. Regarding `Nc1cc(I)c(O)cc1-c1cc(=O)c2ccccc2o1` [Compound 3, 2-(2-Amino-5-hydroxy-4-iodophenyl)-4H-chromen-4-one], on human 12R-LOX enzyme (setting [2]), the midpoint of inhibition, the IC50, lay at 97 µM. On human 12R-LOX enzyme (setting [1]), the inhibition at 100 µM worked out at 51%. `C#CCOc1ccc(N)c(-c2cc(=O)c3ccccc3o2)c1` [Compound 6, 2-(2-Amino-5-(prop-2-ynyloxy)phenyl)-4H-chromen-4-one] returned a melting point of 153 to 155 °C.

Turning to `Nc1ccc(O)cc1-c1cc(=O)c2ccc(F)cc2o1` [Compound 13, 2-(2-Amino-5-hydroxyphenyl)-7-fluoro-4H-chromen-4-one], the melting point lay within 200 to 202 °C. Besides, the inhibition at 100 µM on human 12R-LOX enzyme (setting [1]) is 21 ± 8.4%.

Consider `Nc1ccc(O)cc1-c1cc(=O)c2cc(Br)ccc2o1` [Compound 14, 2-(2-Amino-5-hydroxyphenyl)-6-bromo-4H-chromen-4-one], for which the melting point is greater than 200 °C. The inhibition at 100 µM at human 12R-LOX enzyme (setting [1]) turned out to be 6.95 ± 1.6%. For `O=c1cc(-c2cc(O)ccc2NS(=O)(=O)c2ccc([N+](=O)[O-])cc2)oc2ccccc12` [Compound 15, N-(4-Hydroxy-2-(4-oxo-4H-chromen-2-yl)phenyl)-4-nitrobenzenesulfonamide], in that order: greater than 200 °C and 6.33 ± 5.9%. In turn, `O=c1cc(-c2cc(O)ccc2NS(=O)(=O)c2ccc(C(F)(F)F)cc2)oc2ccccc12` [Compound 17, N-(4-Hydroxy-2-(4-oxo-4H-chromen-2-yl)phenyl)-4-(trifluoromethyl)benzenesulfonamide] registered a melting point of 160 to 162 °C. The inhibition at 100 µM at human 12R-LOX enzyme (setting [1]) stood at 30 ± 5%. `Nc1ccc(O)cc1-c1cc(=O)c2ccc(Br)cc2o1` [Compound 18, 2-(2-Amino-5-hydroxyphenyl)-7-bromo-4H-chromen-4-one] returned a melting point greater than 200 °C. On human 12R-LOX enzyme (setting [2]), this compound displayed an IC50 of 98.1 µM. Moreover, on human 12R-LOX enzyme (setting [1]), the inhibition at 100 µM is 53.5 ± 4.2%. Compound `COc1ccc(N)c(-c2cc(=O)c3ccccc3o2)c1` [Compound 4, 2-(2-Amino-5-methoxyphenyl)-4H-chromen-4-one] had a melting point of 118 to 120 °C.
